Measurements: patent US7317027B2, “Azaindole-derivatives as factor Xa inhibitors” (Sanofi-Aventis Deutschland GmbH, priority 2003, dated 2008)

These compounds were tested against T1, human factor Xa (Homo sapiens, UniProt P00742) (assay: Factor Xa assay (chromogenic, substrate S-2765)). Settings: inhibition constant for inhibition of factor Xa; IC50 corrected for substrate competition; 0.5 nM enzyme, 140 μM S-2765, 25° C., pH 7.8; read-out: Ki(FXa).
T1 construct: 25 μl human factor Xa (Enzyme Research Laboratories, Inc; South Bend, Ind.) in TBS-PEG; purchased Enzyme Research Laboratories, Inc; South Bend, Ind
T1 sequence (P00742 235-488 limits assumed): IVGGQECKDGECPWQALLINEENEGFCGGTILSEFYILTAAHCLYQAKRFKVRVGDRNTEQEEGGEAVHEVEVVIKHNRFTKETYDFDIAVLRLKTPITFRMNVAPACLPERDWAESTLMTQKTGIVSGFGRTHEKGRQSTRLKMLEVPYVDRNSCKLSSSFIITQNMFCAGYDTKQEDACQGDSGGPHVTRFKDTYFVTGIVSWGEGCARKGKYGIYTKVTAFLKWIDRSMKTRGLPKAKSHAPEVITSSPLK
T1 sequence (P00742 41-179 partner limits assumed): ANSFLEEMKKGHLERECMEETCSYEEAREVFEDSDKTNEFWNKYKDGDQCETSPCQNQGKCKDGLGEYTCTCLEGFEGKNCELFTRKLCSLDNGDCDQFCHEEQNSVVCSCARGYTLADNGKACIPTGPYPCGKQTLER
Type: biochemical
Procedure: The ability of the compounds of the formula I to inhibit factor Xa or factor VIIa or other enzymes like thrombin, plasmin, or trypsin can be assessed by determining the concentration of the compound of the formula I that inhibits enzyme activity by 50%, i. e. the IC50 value, which was related to the inhibition constant Ki. Purified enzymes were used in chromogenic assays. The concentration of inhibitor that causes a 50% decrease in the rate of substrate hydrolysis was determined by linear regression after plotting the relative rates of hydrolysis (compared to the uninhibited control) versus the log of the concentration of the compound of formula I. For calculating the inhibition constant Ki, the IC50 value was corrected for competition with substrate using the formula Ki=IC50/{1+(substrate concentration/Km)} wherein Km is the Michaelis-Menten constant (Chen and Prusoff, Biochem. Pharmacol. 22 (1973), 3099-3108; I. H. Segal, Enzyme Kinetics, 1975, John Wiley & Sons, New York, 100-125; which were incorporated herein by reference). a) Factor Xa Assay
In the assay for determining the inhibition of factor Xa activity TBS-PEG buffer (50 mM Tris-HCl, pH 7.8, 200 mM NaCl, 0.05% (w/v) PEG-8000, 0.02% (w/v) NaN3) was used. The IC50 was determined by combining in appropriate wells of a Costar half-area microtiter plate 25 μl human factor Xa (Enzyme Research Laboratories, Inc.; South Bend, Ind.) in TBS-PEG; 40 μl 10% (v/v) DMSO in TBS-PEG (uninhibited control) or various concentrations of the compound to be tested diluted in 10% (v/v) DMSO in TBS-PEG; and substrate S-2765 (N(α)-benzyloxycarbonyl-D-Arg-Gly-L-Arg-p-nitroanilide; Kabi Pharmacia, Inc.; Franklin, Ohio) in TBS-PEG.
The assay was performed by pre-incubating the compound of formula I plus enzyme for 10 min. Then the assay was initiated by adding substrate to obtain a final volume of 100 μl. The initial velocity of chromogenic substrate hydrolysis was measured by the change in absorbance at 405 nm using a Biotek Instruments kinetic plate reader (Ceres UV900HDi) at 25° C. during the linear portion of the time course (usually 1.5 min after addition of substrate). The enzyme concentration was 0.5 nM and substrate concentration was 140 μM.

First: O=C(O)c1ccc2c(cc(C(=O)NC3CCN(c4ccncc4)CC3)n2Cc2cc(-c3ccc(Cl)s3)on2)n1 [Example 9, 1-[5-(5-Chloro-thiophen-2-yl)-isoxazol-3-ylmethyl]-2-(3,4,5,6-tetrahydro-2H-[1,4′]bipyridyl-4-ylcarbamoyl)-1H-pyrrolo[3,2-b]pyridine-5-carboxylic acid]
Second: CC(C)N1CCC(NC(=O)c2cc3nc(C(=O)O)ccc3n2Cc2cc(-c3ccc(Cl)s3)on2)CC1 [Example 6, 1-[5-(5-Chloro-thiophen-2-yl)-isoxazol-3-ylmethyl]-2-(1-isopropyl-piperidin-4-ylcarbamoyl)-1H-pyrrolo[3,2-b]pyridine-5-carboxylic acid]
The Ki of the first is 8.5-fold higher: 85 nM for the first, 10 nM for the second.

Compared with `CC(C)N1CCC(NC(=O)c2cc3cccnc3n2Cc2cc(-c3ccc(Cl)s3)on2)CC1` [Example 1, 1-[5-(5-Chloro-thiophen-2-yl)-isoxazol-3-ylmethyl]-1H-pyrrolo[2,3-b]pyridine-2-carboxylic acid (1-isopropyl-piperidin-4-yl)-amide], `CC(C)N1CCC(NC(=O)c2cc3ncccc3n2Cc2cc(-c3ccc(Cl)s3)on2)CC1` [Example 5, 1-[5-(5-Chloro-thiophen-2-yl)-isoxazol-3-ylmethyl]-1H-pyrrolo[3,2-b]pyridine-2-carboxylic acid (1-isopropyl-piperidin-4-yl)-amide] is 1.5-fold lower in Ki: 6 nM for the first, 4 nM for the second.

`COC(=O)c1cnc2c(c1)cc(C(=O)NC1CCN(C(C)C)CC1)n2Cc1cc(-c2ccc(Cl)s2)on1` [Example 2, 1-[5-(5-Chloro-thiophen-2-yl)-isoxazol-3-ylmethyl]-2-(1-isopropyl-piperidin-4-ylcarbamoyl)-1H-pyrrolo[2,3-b]pyridine-5-carboxylic acid methyl ester] and `CC(C)N1CCC(NC(=O)c2cc3cc(C(=O)O)cnc3n2Cc2cc(-c3ccc(Cl)s3)on2)CC1` [Example 3, 1-[5-(5-Chloro-thiophen-2-yl)-isoxazol-3-ylmethyl]-2-(1-isopropyl-piperidin-4-ylcarbamoyl)-1H-pyrrolo[2,3-b]pyridine-5-carboxylic acid] are within 1.5-fold of each other in Ki: 55 nM for the first, 67 nM for the second.

`CC(C)N1CCC(NC(=O)c2cc3cc(OCCO)ncc3n2CC(=O)Nc2ccc(Cl)cn2)CC1` [Example 13, 1-[(5-Chloro-pyridin-2-ylcarbamoyl)-methyl]-5-(2-hydroxy-ethoxy)-1H-pyrrolo[2,3-c]pyridine-2-carboxylic acid (1-isopropyl-piperidin-4-yl)-amide] and `CC(C)N1CCC(NC(=O)c2cc3cc(OCCO)ncc3n2Cc2cc(-c3ccc(Cl)s3)on2)CC1` [Example 11, 1-[5-(5-Chloro-thiophen-2-yl)-isoxazol-3-ylmethyl]-5-(2-hydroxy-ethoxy)-1H-pyrrolo[2,3-c]pyridine-2-carboxylic acid (1-isopropyl-piperidin-4-yl)-amide] are within 1.5-fold of each other in Ki: 44 nM for the first, 47 nM for the second.

Compared with `CC(C)N1CCC(NC(=O)c2cc3[nH]c(=O)ccc3n2Cc2cc(-c3ccc(Cl)s3)on2)CC1` [Example 7, 1-[5-(5-Chloro-thiophen-2-yl)-isoxazol-3-ylmethyl]-5-oxo-4,5-dihydro-1H-pyrrolo[3,2-b]pyridine-2-carboxylic acid (1-isopropyl-piperidin-4-yl)-amide], `CC(C)N1CCC(NC(=O)c2cc3cc(C(N)=O)cnc3n2Cc2cc(-c3ccc(Cl)s3)on2)CC1` [Example 4, 1-[5-(5-Chloro-thiophen-2-yl)-isoxazol-3-ylmethyl]-1H-pyrrolo[2,3-b]pyridine-2,5-dicarboxylic acid 5-amide 2-[(1-isopropyl-piperidin-4-yl)-amide]] is 3-fold higher in Ki: 23 nM for the first, 70 nM for the second.
